Marks after values point to notes of the source that are not given here.
Legend:
NPR-A [1] = assay: NPR-A expression in IMCD cells (immunofluorescence); assay type: cell-based, Wistar rats; design: key to NPR-A expression (24 hours) / NPR-A expression (48 hours): + = low; ++ = moderate; +++ = high; conditions: for NPR-A expression (24 hours) / NPR-A expression (48 hours): rat IMCD cells
Description: IMCD cells from Wistar rats were isolated and cultured using the method previously described by Ye Q et al.: Endothelin inhibits NPR-A and stimulates eNOS gene expression in rat IMCD cells. Hypertension 41, 675-681 (2003). […] […] The Density of membrane NPR-A in IMCD cells were visualized by immunofluorescence.

[2] = Diuretic effect in rats with decompensated heart failure; assay type: in vivo, Wistar rats; conditions: 1 mg/kg, 12 hours, mean ± SD
Experimental: (§1) To determine the effects of corticosteroids on systemic volume in HF, 15 Wistar rats with HF were randomized to receive NCX-1015 (n=5), or prednisolone (n=5), or vehicle (n=5). HF model was accomplished by left anterior descending artery ligation, and then the survived rats were raised for 12 weeks to have decompensated HF (i.e. HF with fluid accumulation). Parameters on urinary volume and urinary sodium in 12 hours were collected.

NPR-A [3] = assay: NPR-A expression in renal medulla of heart failure rats (western blotting); assay type: in vivo, Wistar rats
Experimental: as §1

AT1 receptor = AT1 receptor density in the kidney of rats with decompensated heart failure (western blotting); assay type: in vivo, Wistar rats; conditions: 1 mg/kg, 24-hour treatment, mean ± SD
Description: (§2) To determine the effects of corticosteroids on RAAS in HF, 15 Wistar rats with HF were randomized to receive NCX-1015 (n=5), or prednisolone (n=5), or vehicle (n=5).

angiotensin II = assay: Plasma angiotensin II in rats with decompensated heart failure; assay type: in vivo, Wistar rats; conditions: 1 mg/kg, 24-hour treatment, mean ± SD
Description: as §2

aldosterone = assay: Plasma aldosterone in rats with decompensated heart failure; assay type: in vivo, Wistar rats; conditions: 1 mg/kg, 24-hour treatment, mean ± SD
Description: as §2

V2 receptor = V2 receptor density in the kidney of rats with decompensated heart failure (western blotting); assay type: in vivo, Wistar rats; conditions: 1 mg/kg, 24-hour treatment, mean ± SD
Description: (§3) To determine the effects of corticosteroids on vasopressin axis in HF, 15 Wistar rats with HF were randomized to receive NCX-1015 (n=5), or prednisolone (n=5), or vehicle (n=5).

vasopressin = assay: Plasma vasopressin in rats with decompensated heart failure; assay type: in vivo, Wistar rats; conditions: 1 mg/kg, 24-hour treatment, mean ± SD
Description: as §3

[4] = Diuretic effect of Dexamethasone in intact Wistar rats; assay type: in vivo; conditions: 24-hour treatment, Dex 1 mg/kg (RU486 100 mg/kg in combination), mean ± SD
Description: (§4) To determine the effect of glucocorticoids on diuretic effect and NPR-A expression in renal medulla, 15 intact Wistar rats were randomized to receive Dexamethasone (Dex), vehicle and glucocorticoid receptor (GR) antagonist RU 486.

NPR-A [5] = assay: NPR-A expression in renal medulla of intact rats (western blotting); assay type: in vivo; conditions: intact Wistar rats, 24-hour treatment, Dex 1 mg/kg (RU486 100 mg/kg in combination), mean ± SD
Description: as §4

[6] = 10^−6 mol/L, membrane NPR-A density
[7] = 10^−6 mol/L, membrane NPR-A density (Table 3)
[8] = 10^−7 mol/L, membrane NPR-A density (Table 3)
[9] = 10^−7 mol/L, membrane NPR-A density

Compound	Urinary sodium [2]	Urinary volume [2]	NPR-A expression in the renal medulla, higher than vehicle-treated rats (NPR-A [3])	AT1 receptor density in the kidney (AT1 receptor)	Plasma angiotensin II (angiotensin II)	Plasma aldosterone (aldosterone)	V2 receptor density in the kidney (V2 receptor)	Plasma vasopressin (vasopressin)	other results
C[C@]12C=CC(=O)C=C1CC[C@@H]1[C@@H]2[C@@H](O)C[C@@]2(C)[C@H]1CC[C@]2(O)C(=O)CO [prednisolone]	1.08 ± 0.1 mmol/12 h	6.1 ± 0.7 ml/12 h	26.5%	67.06 ± 12.96 % of vehicle	665.86 ± 113.90^$ pg/ml	1.39 ± 0.26 ng/mL	79.80 ± 9.44^$ % of vehicle	45.72 ± 8.35^$ pg/ml	NPR-A expression (24 hours) (NPR-A [1]; [6]): +; NPR-A expression (48 hours) (NPR-A [1]; [6]): ++
C[C@@H]1C[C@H]2[C@@H]3CCC4=CC(=O)C=C[C@]4(C)[C@@]3(F)[C@@H](O)C[C@]2(C)[C@@]1(O)C(=O)CO [Dex, Dexamethasone]	–	–	–	–	–	–	–	–	Urinary sodium [4]: 3.50 ± 0.39 mmol/24 h; Urinary volume [4]: 16.4 ± 2.4 ml/24 h; NPR-A expression (NPR-A [5]): 132.2 ± 9.7* 100% of vehicle
C[C@]12CCC(=O)C=C1CC[C@@H]1[C@@H]2[C@@H](O)C[C@@]2(C)[C@H]1CC[C@]2(O)C(=O)CO [hydrocortisone]	–	–	–	–	–	–	–	–	NPR-A expression (24 hours) (NPR-A [1]; [7]): +; NPR-A expression (48 hours) (NPR-A [1]; [7]): ++
C[C@]12CCC(=O)C=C1CC[C@@H]1[C@@H]2[C@@H](O)C[C@@]2(C)[C@H]1CC[C@]2(O)C(=O)COC(=O)c1ccc(CO[N+](=O)[O-])cc1 [NCX-1022]	–	–	–	–	–	–	–	–	NPR-A expression (24 hours) (NPR-A [1]; [8]): ++; NPR-A expression (48 hours) (NPR-A [1]; [8]): +++
C[C@]12C=CC(=O)C=C1CC[C@@H]1[C@@H]2[C@@H](O)C[C@@]2(C)[C@H]1CC[C@]2(O)C(=O)COC(=O)c1ccc(CO[N+](=O)[O-])cc1 [NCX-1015, prednisolone 21-[(4′-nitro-oxymethyl)benzoate]]	1.43 ± 0.15 mmol/12 h	8.8 ± 1.5 ml/12 h	42.8%	43.14 ± 7.07 % of vehicle	412.20 ± 64.99*^& pg/ml	0.99 ± 0.09 ng/mL	54.06 ± 16.15 % of vehicle	32.14 ± 5.47 pg/mL	Dose needed to attain the same effect of prednisolone on renal NPR-A (NPR-A [1]; in vitro, fraction of the prednisolone dose): about 1/10; Time needed to attain the same effect of prednisolone on renal NPR-A (NPR-A [1]; in vitro, fraction of the prednisolone time): about half; NPR-A expression (24 hours) (NPR-A [1]; [9]): ++; NPR-A expression (48 hours) (NPR-A [1]; [9]): +++

Source: US8716268B2, “Nitrate esters of corticoid compounds useful as diuretics” (priority 2010, dated 2014)
